Where a SMILES comes first, the peptide text is derived from it. [ ]: non-standard residue; d: D form. Dolaproine = CO[C@@H]([C@@H]1CCCN1)[C@@H](C)C(=O)O; Dil = CC[C@H](C)[C@H](NC)[C@@H](CC(=O)O)OC; NMeV = CN[C@H](C(=O)O)C(C)C
Experiments:
FR806-negative HEK293T = assay: Cell killing experiment on FR806-negative EGFR+ HEK293T cells; type: cell-based
FR806-positive T cells = assay: CCK8 assay for killing FR806-expressing T cells; type: cell-based, human; conditions: CCK8, 72 h, 10-1000 nM
Protocol: Experimental group: T cells expressing eGFP-FR806 after sorted in Example 3 were plated in a 96-well plate at 3×10^4 cells per well in 100 ul of medium, 5 replicate wells per drug concentration, and then a blank group of medium was set. Control group: T cells that were not infected with the virus were taken and plated in a 96-well plate according to the operation of the experimental group. […] After 72 h, 10 ul of CCK8 reagent (Dojindo) was added to each well and incubated at 37° C. for 3 h, and the absorbance was measured at 450 nm by a microplate reader to calculate the cell viability.
According to the above procedure, the sorted T cells infected with eGFP-FR806 were taken and plated in a 96-well plate at 3×10^4 cells per well in 100 ul of culture medium, 5 replicate wells per drug concentration, and then a blank group of medium was set. The control group was uninfected T cells, which were plated in a 96-well plate by the same method. Six concentrations of free MMAFs of 1000 nM, 500 nM, 100 nM, 50 nM, 10 nM and 0 nM were added to T cells at specific concentrations to prepare six gradients (i.e., the aforementioned six concentrations). After 72 h, 10 ul of CCK8 reagent (Dojindo) was added to each well for 3 h at 37° C., and the absorbance was measured at 450 nm by a microplate reader to calculate the cell viability. […]

FR806-positive HEK293T = assay: Cell killing experiment on EGFR+ HEK293T cells expressing FR806; type: cell-based
Source text: Moreover, the applicant selected EGFR+ HEK293T cells expressing FR806, and subjected them to cell killing experiments.

[1] = molecular target: T1, EGFR on Keratinocyte cells and HEK-293T cells (human, UniProt P00533 25-1210); assay: FACS on Keratinocyte cells and HEK-293T cells expressing EGFR
T1 construct: whole, on cells; also called epidermal growth factor receptor

Molecule	killing of FR806-negative HEK293T (FR806-negative HEK293T)	killing levels to T cells expressing and not expressing FR806 (FR806-positive T cells)	killing of FR806-positive HEK293T (FR806-positive HEK293T)	binding result [1]
CC[C@H](C)[C@@H]([C@@H](CC(=O)N1CCC[C@H]1[C@H](OC)[C@@H](C)C(=O)N[C@@H](Cc1ccccc1)C(=O)O)OC)N(C)C(=O)[C@@H](NC(=O)[C@@H](NC)C(C)C)C(C)C [Free MMAF, MMAF] (H-[NMeV]V[Dil][Dolaproine]F-OH)	killed	comparable	killed	–
CH12 antibody (antibody, human IgG1, kappa, V domains shown, CH12 antibody as disclosed in CN 200810038848.8; detected with goat anti-human IgG) VH: DVQLQESGPGLVKPSQSLSLTCTVTAYSVTSDYAWNWIRQFPGNKLEWMGYISYSGTTRYNPSLKSRISITRDTSKNQFFLQLNSMTAEDTATYYCSRQGRGFPYWGQGTLVTVSA VL: DILMTQSPSSMSVSLGDTVSITCHASQDINSNIGWLQQKPGKSFKGLIYHGTNLEDGVPSRFSGSGSGADYSLTISSLESEDFADYYCVQYAQFPWTFGGGTKLEIKR	–	–	–	no binding
